From ChEMBL document CHEMBL1201862, “PubChem BioAssay data set” (2004)
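Compound exposure: 48 hours, 5 concentrations, 96-well plates. GI50 = concentration required for 50% inhibition of growth.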 Activity calls are given as the source filed them. Rule as the data show it: active = GI50 up to about 1.1 µM and inactive = higher.

Experiments:
Assay in all cases: NCI-60 cell line screen, 48 h
CAKI-1 = test system: CAKI-1
CCRF-CEM = test system: CCRF-CEM
COLO 205 = test system: COLO 205
SF-268 = test system: SF-268
NCI-H460 = test system: NCI-H460
DU-145 = test system: DU-145
KM12 = test system: KM12
UACC-62 = test system: UACC-62
MDA-MB-231 = test system: MDA-MB-231
LOX IMVI = test system: LOX IMVI
Malme-3M = test system: Malme-3M
OVCAR-4 = test system: OVCAR-4
M14 = test system: M14
SNB-19 = test system: SNB-19
UO-31 = test system: UO-31
SK-OV-3 = test system: SK-OV-3
SN12C = test system: SN12C
HOP-92 = test system: HOP-92
SW-620 = test system: SW-620
ACHN = test system: ACHN

NC1=NC(NCC2(CO)CCC2)=CC(OCC2(CO)CCC2)N1 (stereo not given)
GI50 (CAKI-1): > 100 µM (inactive) | GI50 (CCRF-CEM): > 100 µM (inactive) | GI50 (COLO 205): > 100 µM (inactive) | GI50 (SF-268): > 100 µM (inactive) | GI50 (NCI-H460): > 100 µM (inactive) | GI50 (DU-145): > 100 µM (inactive) | GI50 (KM12): > 100 µM (inactive) | GI50 (UACC-62): > 100 µM (inactive) | GI50 (MDA-MB-231): > 100 µM (inactive) | GI50 (LOX IMVI): > 100 µM (inactive) | GI50 (Malme-3M): > 100 µM (inactive) | GI50 (OVCAR-4): > 100 µM (inactive) | GI50 (M14): > 100 µM (inactive) | GI50 (SNB-19): > 100 µM (inactive) | GI50 (UO-31): > 100 µM (inactive) | GI50 (SK-OV-3): > 100 µM (inactive) | GI50 (SN12C): > 100 µM (inactive) | GI50 (HOP-92): > 100 µM (inactive) | GI50 (SW-620): > 100 µM (inactive)

COc1cc(C2SCC(=O)N2c2ccccc2Cl)cc(OC)c1OC (stereo not given)
GI50 (CAKI-1): > 100 µM (inactive) | GI50 (CCRF-CEM): 80.4 µM (inactive) | GI50 (ACHN): > 100 µM (inactive) | GI50 (COLO 205): > 100 µM (inactive) | GI50 (SF-268): > 100 µM (inactive) | GI50 (NCI-H460): > 100 µM (inactive) | GI50 (DU-145): > 100 µM (inactive) | GI50 (KM12): 47.2 µM (inactive) | GI50 (UACC-62): > 100 µM (inactive) | GI50 (MDA-MB-231): > 100 µM (inactive) | GI50 (LOX IMVI): > 100 µM (inactive) | GI50 (OVCAR-4): > 100 µM (inactive) | GI50 (M14): > 100 µM (inactive) | GI50 (SNB-19): 79.3 µM (inactive) | GI50 (UO-31): > 100 µM (inactive) | GI50 (SK-OV-3): > 100 µM (inactive) | GI50 (SN12C): > 100 µM (inactive) | GI50 (HOP-92): > 100 µM (inactive) | GI50 (SW-620): > 100 µM (inactive)

COc1ccc(CN(Cc2ccc(OC)cc2)C(=O)CC2(O)CCc3ccccc3C2)cc1 (stereo not given)
GI50 (CAKI-1): 43.2 µM (inactive) | GI50 (CCRF-CEM): 16.6 µM (inactive) | GI50 (ACHN): 49.8 µM (inactive) | GI50 (COLO 205): 21.8 µM (inactive) | GI50 (NCI-H460): 44 µM (inactive) | GI50 (DU-145): > 100 µM (inactive) | GI50 (KM12): 26 µM (inactive) | GI50 (UACC-62): 50.9 µM (inactive) | GI50 (MDA-MB-231): > 100 µM (inactive) | GI50 (LOX IMVI): 52.4 µM (inactive) | GI50 (Malme-3M): 28.2 µM (inactive) | GI50 (OVCAR-4): 57 µM (inactive) | GI50 (M14): 66.1 µM (inactive) | GI50 (SNB-19): > 100 µM (inactive) | GI50 (UO-31): 15.1 µM (inactive) | GI50 (SK-OV-3): > 100 µM (inactive) | GI50 (SN12C): > 100 µM (inactive) | GI50 (HOP-92): > 100 µM (inactive) | GI50 (SW-620): > 100 µM (inactive)

C=CCn1c(=O)c(C(=O)Nc2nc(C34CC5CC(CC(C5)C3)C4)cs2)c(O)c2ccccc21
GI50 (CAKI-1): 58.9 µM (inactive) | GI50 (CCRF-CEM): 37.3 µM (inactive) | GI50 (ACHN): 29.5 µM (inactive) | GI50 (COLO 205): 18.1 µM (inactive) | GI50 (SF-268): > 10 µM (inactive) | GI50 (NCI-H460): 32.9 µM (inactive) | GI50 (DU-145): 47.8 µM (inactive) | GI50 (KM12): 30.1 µM (inactive) | GI50 (MDA-MB-231): 22 µM (inactive) | GI50 (LOX IMVI): 34 µM (inactive) | GI50 (Malme-3M): 26 µM (inactive) | GI50 (OVCAR-4): 39.2 µM (inactive) | GI50 (SNB-19): 53.6 µM (inactive) | GI50 (UO-31): 31.8 µM (inactive) | GI50 (SN12C): 45.5 µM (inactive) | GI50 (HOP-92): 28.4 µM (inactive) | GI50 (SW-620): 23.5 µM (inactive)

COc1ccc2cc(NC(=O)Nn3cnnc3)ccc2c1
GI50 (CAKI-1): > 100 µM (inactive) | GI50 (CCRF-CEM): > 100 µM (inactive) | GI50 (ACHN): > 100 µM (inactive) | GI50 (COLO 205): > 100 µM (inactive) | GI50 (SF-268): > 100 µM (inactive) | GI50 (NCI-H460): > 100 µM (inactive) | GI50 (DU-145): > 100 µM (inactive) | GI50 (KM12): 92.5 µM (inactive) | GI50 (UACC-62): > 100 µM (inactive) | GI50 (MDA-MB-231): > 100 µM (inactive) | GI50 (LOX IMVI): > 100 µM (inactive) | GI50 (Malme-3M): > 100 µM (inactive) | GI50 (OVCAR-4): > 100 µM (inactive) | GI50 (M14): > 100 µM (inactive) | GI50 (SNB-19): > 100 µM (inactive) | GI50 (UO-31): > 100 µM (inactive) | GI50 (SK-OV-3): > 100 µM (inactive) | GI50 (HOP-92): > 100 µM (inactive) | GI50 (SW-620): > 100 µM (inactive)

COC(=O)CC(=O)Nc1sccc1S(=O)(=O)c1ccccc1
GI50 (CAKI-1): > 100 µM (inactive) | GI50 (CCRF-CEM): > 100 µM (inactive) | GI50 (ACHN): > 100 µM (inactive) | GI50 (COLO 205): > 100 µM (inactive) | GI50 (SF-268): > 100 µM (inactive) | GI50 (NCI-H460): > 100 µM (inactive) | GI50 (DU-145): 71.3 µM (inactive) | GI50 (KM12): 94.8 µM (inactive) | GI50 (UACC-62): 49.1 µM (inactive) | GI50 (MDA-MB-231): > 100 µM (inactive) | GI50 (Malme-3M): > 100 µM (inactive) | GI50 (OVCAR-4): 54.3 µM (inactive) | GI50 (M14): 27 µM (inactive) | GI50 (SNB-19): > 100 µM (inactive) | GI50 (UO-31): 40.5 µM (inactive) | GI50 (SK-OV-3): > 100 µM (inactive) | GI50 (SN12C): > 100 µM (inactive) | GI50 (HOP-92): > 100 µM (inactive) | GI50 (SW-620): > 100 µM (inactive)

CCOc1ccc(/N=N/C2C(=O)N(C(=O)CC(=O)Nc3ccc(C)cc3)N=C2C)cc1 (stereo not given)
GI50 (CAKI-1): 26.5 µM (inactive) | GI50 (CCRF-CEM): 43.6 µM (inactive) | GI50 (ACHN): 50.8 µM (inactive) | GI50 (COLO 205): > 100 µM (inactive) | GI50 (SF-268): 22.3 µM (inactive) | GI50 (NCI-H460): 14.8 µM (inactive) | GI50 (DU-145): 38.6 µM (inactive) | GI50 (KM12): 8.47 µM (inactive) | GI50 (UACC-62): 16.7 µM (inactive) | GI50 (MDA-MB-231): 17 µM (inactive) | GI50 (LOX IMVI): 14.6 µM (inactive) | GI50 (Malme-3M): 47.5 µM (inactive) | GI50 (OVCAR-4): 25.3 µM (inactive) | GI50 (M14): 52.7 µM (inactive) | GI50 (SNB-19): 14.3 µM (inactive) | GI50 (UO-31): 29.4 µM (inactive) | GI50 (SN12C): 35.2 µM (inactive) | GI50 (HOP-92): 16.7 µM (inactive) | GI50 (SW-620): 21.6 µM (inactive)

O=C(/C=C/c1ccccc1Br)c1ccccc1
GI50 (CAKI-1): 2.96 µM (inactive) | GI50 (CCRF-CEM): 0.259 µM (active) | GI50 (ACHN): 1.8 µM (inactive) | GI50 (COLO 205): 14.5 µM (inactive) | GI50 (SF-268): 3.58 µM (inactive) | GI50 (NCI-H460): 4.37 µM (inactive) | GI50 (DU-145): 8.07 µM (inactive) | GI50 (KM12): 2.14 µM (inactive) | GI50 (UACC-62): 11.4 µM (inactive) | GI50 (MDA-MB-231): 13.2 µM (inactive) | GI50 (LOX IMVI): 1.36 µM (inactive) | GI50 (OVCAR-4): 1.77 µM (inactive) | GI50 (M14): 6.61 µM (inactive) | GI50 (SNB-19): 10.9 µM (inactive) | GI50 (UO-31): 5.55 µM (inactive) | GI50 (SK-OV-3): 16.9 µM (inactive) | GI50 (SN12C): 9.84 µM (inactive) | GI50 (HOP-92): 16.7 µM (inactive) | GI50 (SW-620): 1.58 µM (inactive)
